{
  "source": "patent US4851338A",
  "about": "“Method for diagnosing the presence of bacteria” (Biocarb AB, priority 1982, dated 1989)",
  "key": {"[1]": {"test_system": "haemagglutination between sheep erythrocytes and S. saprophyticus bacteria (Mc 2 and Mc 194)", "assay": "Inhibition of haemagglutination of sheep erythrocytes with Staphylococcus saprophyticus", "type": "cell-based", "conditions": "for minimal effective concentration: Staphylococcus saprophyticus, Erythrocyte, read-out: Minimum inhibitory con.", "method": "In the tests the bacteria S. saprophyticus strains, both isolated from urine from patents having urinary tract infection, were used. The bacteria were cultivated in tryptone broth over night, pelletized by means of centrifugation and washed twice with PBS, pH 7.2. Haemagglutination was performed using erythrocytes from sheep obtained from sheep blood and washed twice with 0.85 % saline.\nIn the haemagglutination-indication experiments microtitre plates (Limbo Sc. Comp. Inc) were used. 25 μl of bacterial suspension were titrated in PBS by two-step titre steps, 25 μl of 1% erythrocyte suspension being then added. The haemagglutination titre was determined after incubation of the plates for 2-4 hours in room temperature.\nIn the inhibition experiments serial dilutions of the relevant inhibitor (50 μl/well) and 25 μl of bacterial suspension diluted to contain 2 HU haemagglutinating units of bacteria were used. The plates were incubated for 30 minutes at 37° C., 25 μl of the erythrocyte suspension being then added to each well."}, "[2]": {"test_system": "haemagglutination between GRBC and Bordetella pertussis bacteria or fimbriae thereof", "assay": "Inhibition of haemagglutination of goose erythrocytes (GRBC) with Bordetella pertussis", "type": "cell-based", "conditions": "for minimal effective concentration: Bordetella pertussis, Erythrocyte, 4 h, read-out: Minimum inhibitory concentration", "method": "In the tests bacteria of the type Bordetella pertussis newly sampled from an individual suffering from whooping cough were used. The bacteria were cultivated on CFA-agar at +37° C. for 18 hours. The bacterial growth was slurried in PBS, pH 7.2 to a density of 1×10^10 bacteria/ml. Fimbriae from the bacterium were obtained in the following manner:\nThe bacteria were cultivated on Roux flasks with CFA-agar. After incubation at +37° for 24 hours the bacteria were harvested by adding 10 ml PBS/flask and sterile glass balls. The flasks were shaken and the bacterial suspension removed. The bacteria were pelletized by centrifugation (3000×g, +4°, 30 min.). The supernatant was removed by suction. The bacteria were resuspended in 10 ml PBS and the suspension was treated in a Waring blendor 2 x 20 seconds. The suspension was centrifuged (5000×g, +4°, 30 min.) to pelletize the bacteria. The supernatant containing fimbriae was removed by suction. The bacterial pellet is resuspended, treated in a Waring blender and after centrifugation the supernatant is again recovered. The two supernatants are pooled and ammonium sulphate is added to a concentration of 30 %. After stirring the supernatants are allowed to stand at +4° C. for 18 hours, centrifugation then taking place at 5000 ×g. The supernatant was separated and the precipitation was dialyzed against PBS. The solubilized fimbriae fraction was precipitated with ammonium sulphate once more and dialyzed.\nHaemagglutination is performed using erythrocytes from geese (GRBC) suspended to a concentration of 3% v/w in PBS. The agglutination tests were carried out so that 50 μl GRBC were mixed with 2-step dilution of antigen 50 μl bacterial suspension or 50 μl fimbriae suspension and 50 μl PBS in microtitre plates. The plates were sealed with Parafilm and incubated at […] for 4 hours and were then recorded. The last well wherein agglutination could be read by the eye is considered as 1 haemagglutinating unit (1 HU).\nIn the inhibition experiments there were added instead of PBS 50 μl of an oligosaccharide solution, the inhibiting capacity was studied. […]"}, "[3]": {"test_system": "NK-cells activity (lymphocytes) against K-562 cells", "assay": "Inhibition of NK-cells activity (chromium release cytotoxicity of lymphocytes against K-562)", "type": "cell-based, human", "conditions": "for % specific cytotoxicity: ratio 20:1; for cytolytic effect after preincubation with the oligosaccharides: in concentrations down to 0.3 mg/ml", "method": "Lymphocytes isolated from peripheral blood drained from normal donors have the ability of exerting a cytotoxic, (i.e. cell killing activity against certain types of cells in culture. In the instant example there is used a human leukemia cell line called K-562 as a target cell for such cytolytic activity.\nMethod: K-562 cells intracellularly labelled with radioactive chromium are incubated with effector cells (lymphocytes) for 4 hours at 37° C. The cytotoxic effect is measured as the quantity of isotope released in relation to remaining isotope in the target cells. For details see Malmstrom, P., Jonsson, Å, and Sjogren, H.O. \"Countercurrent distribution of lymphocytes from human peripheral blood in an aqueous two-phase system. II. Separation into subsets of lymphocytes with distinctive functions\". Cell Immunol. 53:51-64, 1980. For studying inhibiting substances effector cells (6×10^6 cells/ml) are preincubated with the respective oligosaccharides diluted in cultivating medium for half an hour at 37° C. After washing with centrifugation the effector cells are transferred directly to the target cells."}, "[4]": {"test_system": "adhesion of S. saprophyticus to urinary epithelial cells", "assay": "Inhibition of adherence of S. saprophyticus to urinary epithelial cells", "type": "cell-based, Staphylococcus saprophyticus", "conditions": "Staphylococcus saprophyticus, Epithelial cell, 0.75 h, read-out: reduction of the number of adhering bacteria", "method": "Cells from urinary epithelium were suspended in cell cultivation medium RPMI 1640 (Flow Ltd) to a concentration of 10^5 cells/ml.\nMicroorganisms of the type S. saprophyticus were suspended in RPMI 1640 to a concentration of 10^9 bacteria/ml. Oligosaccharides which were tested for their ability of preventing adhesion of S. saprophyticus to urinary epithelial cells were dissolved in RPMI 1640 to a concentration of 5 mg/ml. In the experiments 1 ml of the oligosaccharide solution was incubated with 0.1 ml bacterial suspension at 37° C. for 30 minutes. Urinary epithelial cells were incubated with the bacterial suspension incubated in advance as described above with oligosaccharide solution for 45 minutes at 37° C. As a control there was used a bacterial suspension preincubated with 1 ml RPMI 1640.\nIncubated samples were filtrated through a 12μ filter and washed 3 times with PBS. The filter was pressed against microscope slides for a few seconds, the slides being then fixed in methanol for 10 minutes. The slides were dried in air and coloured with acridine orange for 2 minutes. The slides were washed, dried in air and studies in fluorescence microscope. The number of bacteria per cell was counted. In each experiment 50 cells were counted."}, "[5]": {"test_system": "S. saprophyticus", "assay": "Removal of S. saprophyticus from an infected surface (disinfection)", "set-up": "species or system Staphylococcus saprophyticus", "conditions": "0.1 percent by weight aqueous solution, cotton pad", "method": "A 0.1 percent by weight aqueous solution of the compound β-D-Galp-(1-4)-D-GNAc is prepared and applied by using a cotton pad on a surface infected by S. saprophyticus."}, "[6]": {"conditions": "0.3 mg/ml oligosaccharide, experiment 1 (without inhibitor 22.3)"}, "[7]": {"conditions": "0.3 mg/ml oligosaccharide, experiment 2 (without inhibitor 32.0)"}, "[8]": {"conditions": "1 mg/ml oligosaccharide, experiment 1 (without inhibitor 22.3)"}, "[9]": {"conditions": "1 mg/ml oligosaccharide, experiment 2 (without inhibitor 32.0)"}, "[10]": {"conditions": "3 mg/ml oligosaccharide, experiment 1 (without inhibitor 22.3)"}, "[11]": {"conditions": "3 mg/ml oligosaccharide, experiment 2 (without inhibitor 32.0)"}},
  "data": [
    {"compound": "CC(=O)N[C@H]1[C@H](O[C@@H]2[C@@H](OC[C@H]3O[C@@H](O[C@H]4[C@H](O)[C@@H](NC(C)=O)C(O)O[C@@H]4CO)[C@@H](O)[C@@H](O)[C@@H]3O)O[C@H](CO)[C@@H](O)[C@@H]2O)O[C@H](CO)[C@@H](O[C@@H]2O[C@H](CO)[C@H](O)[C@H](O)[C@H]2O)[C@@H]1O", "note": "(stereo partly drawn) [GM1 -penta, β-Galp-(1-4)-β-GNAcp-(1-2)-α-Manp-(1-6)-β-Manp-(1-4)-GNAc]", "values": [
      {"measurement": "minimal effective concentration", "setting": "[1]", "value": 250, "unit": "µg/mL"},
      {"measurement": "minimal effective concentration", "setting": "[2]", "value": 675, "unit": "µg/mL"},
      {"measurement": "% specific cytotoxicity", "setting": "[3]; [6]", "value": 16.8, "unit": "%"},
      {"measurement": "% specific cytotoxicity", "setting": "[3]; [7]", "value": 13.9, "unit": "%"},
      {"measurement": "% specific cytotoxicity", "setting": "[3]; [8]", "value": 6.5, "unit": "%"},
      {"measurement": "% specific cytotoxicity", "setting": "[3]; [9]", "value": 2.7, "unit": "%"},
      {"measurement": "% specific cytotoxicity", "setting": "[3]; [10]", "value": -1.4, "unit": "%"},
      {"measurement": "% specific cytotoxicity", "setting": "[3]; [11]", "value": 0.0, "unit": "%"},
      {"measurement": "cytolytic effect after preincubation with the oligosaccharides", "setting": "[3]", "value": "inhibited"}
    ]},
    {"compound": "CC(=O)N[C@H]1[C@H](O[C@@H]2[C@@H](OC[C@H]3O[C@@H](O[C@H]4[C@H](O)[C@@H](NC(C)=O)C(O)O[C@@H]4CO)[C@@H](O)[C@@H](O[C@H]4O[C@H](CO)[C@@H](O)[C@H](O)[C@@H]4O[C@@H]4O[C@H](CO)[C@@H](O[C@@H]5O[C@H](CO)[C@H](O)[C@H](O)[C@H]5O)[C@H](O)[C@H]4NC(C)=O)[C@@H]3O)O[C@H](CO)[C@@H](O)[C@@H]2O)O[C@H](CO)[C@@H](O[C@@H]2O[C@H](CO)[C@H](O)[C@H](O)[C@H]2O)[C@@H]1O", "note": "(stereo partly shown) [drawing 7]", "values": [
      {"measurement": "minimal effective concentration", "setting": "[2]", "value": 175, "unit": "µg/mL"}
    ]},
    {"compound": "CC(=O)N[C@H]1C(O)O[C@H](CO)[C@@H](O[C@@H]2O[C@H](CO)[C@H](O)[C@H](O)[C@H]2O)[C@@H]1O", "note": "(stereo partly drawn) [β-Galp-(1-4)-GNAc]", "values": [
      {"measurement": "minimal effective concentration", "setting": "[1]", "value": 300, "unit": "µg/mL"},
      {"measurement": "inhibition at 5000 µg/mL", "setting": "[4]", "value": "~85", "unit": "%"},
      {"measurement": "removal of the bacterium from the surface", "setting": "[5]", "value": "effective removal of the bacterium from the surface"}
    ]},
    {"compound": "Asialofetuin", "values": [
      {"measurement": "Minimum inhibitory con.", "setting": "[1]; Inhibition of haemagglutination, S. saprophyticus Mc 2 and Mc 194, 2 HU bacteria", "value": 125, "unit": "µg/mL"},
      {"measurement": "Minimum inhibitory concentration", "setting": "[2]; Inhibition of haemagglutination, 3% GRBC, 2-4 HU bacteria or fimbriae, +44° C., 4 hours", "value": 150, "unit": "µg/mL"},
      {"measurement": "% specific cytotoxicity", "setting": "[3]; [6]", "value": 10, "unit": "%"},
      {"measurement": "% specific cytotoxicity", "setting": "[3]; [7]", "value": 15, "unit": "%"},
      {"measurement": "% specific cytotoxicity", "setting": "[3]; [8]", "value": 7.0, "unit": "%"},
      {"measurement": "% specific cytotoxicity", "setting": "[3]; [9]", "value": 5.0, "unit": "%"},
      {"measurement": "% specific cytotoxicity", "setting": "[3]; [10]", "value": 1.5, "unit": "%"},
      {"measurement": "% specific cytotoxicity", "setting": "[3]; [11]", "value": 1.0, "unit": "%"},
      {"measurement": "cytolytic effect after preincubation with the oligosaccharides", "setting": "[3]", "value": "inhibited"}
    ]}
  ]
}
